Where two headings read alike, the source gives them in different places.
Target: T1, sGC enzyme (Homo sapiens, UniProt Q02108+Q02153)
T1 construct: sGC enzyme activity values in HEK cells, determined by the GloSensor assay; host or cells: HEK293 cells stably expressing GloSensor 40F cGMP biosensor
T1 sequence (Q02153 1-619): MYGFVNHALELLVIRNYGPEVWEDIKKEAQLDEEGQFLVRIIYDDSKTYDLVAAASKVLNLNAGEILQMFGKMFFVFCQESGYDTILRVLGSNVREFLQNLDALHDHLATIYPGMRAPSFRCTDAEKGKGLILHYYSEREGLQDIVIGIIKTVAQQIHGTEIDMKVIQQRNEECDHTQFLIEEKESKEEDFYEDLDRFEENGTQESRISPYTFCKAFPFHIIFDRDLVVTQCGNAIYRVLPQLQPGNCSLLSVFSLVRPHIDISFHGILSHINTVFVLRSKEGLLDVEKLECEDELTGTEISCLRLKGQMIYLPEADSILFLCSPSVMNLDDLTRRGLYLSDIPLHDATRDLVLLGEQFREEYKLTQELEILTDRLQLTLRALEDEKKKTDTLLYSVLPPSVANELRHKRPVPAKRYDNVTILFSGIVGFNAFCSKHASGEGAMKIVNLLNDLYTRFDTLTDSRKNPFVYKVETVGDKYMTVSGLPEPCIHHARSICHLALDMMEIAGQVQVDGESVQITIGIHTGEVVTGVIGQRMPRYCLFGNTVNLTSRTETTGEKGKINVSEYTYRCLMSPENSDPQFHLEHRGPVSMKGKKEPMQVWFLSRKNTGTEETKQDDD
T1 sequence (Q02108 1-690): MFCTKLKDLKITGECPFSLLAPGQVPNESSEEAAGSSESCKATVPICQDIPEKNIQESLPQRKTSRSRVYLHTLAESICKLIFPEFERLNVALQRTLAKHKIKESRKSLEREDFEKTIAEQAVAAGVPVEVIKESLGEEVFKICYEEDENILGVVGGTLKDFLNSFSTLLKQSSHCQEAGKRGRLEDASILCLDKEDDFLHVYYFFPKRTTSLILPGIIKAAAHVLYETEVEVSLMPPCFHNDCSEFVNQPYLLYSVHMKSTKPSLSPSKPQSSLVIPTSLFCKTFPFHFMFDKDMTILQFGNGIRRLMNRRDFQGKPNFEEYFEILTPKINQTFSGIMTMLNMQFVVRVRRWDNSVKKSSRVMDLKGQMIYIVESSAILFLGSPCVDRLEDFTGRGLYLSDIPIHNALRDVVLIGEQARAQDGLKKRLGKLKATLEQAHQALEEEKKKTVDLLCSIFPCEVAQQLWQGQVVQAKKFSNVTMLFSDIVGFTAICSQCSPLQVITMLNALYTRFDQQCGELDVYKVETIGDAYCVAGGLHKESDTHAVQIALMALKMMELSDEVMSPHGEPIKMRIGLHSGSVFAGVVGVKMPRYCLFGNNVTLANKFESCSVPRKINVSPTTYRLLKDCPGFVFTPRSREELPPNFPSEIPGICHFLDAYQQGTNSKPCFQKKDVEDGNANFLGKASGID
Assay: cGMP GloSensor cell-based assay, synergy with NO at varied DETA-NO (Example 2b)
Conditions: for EC50: HEK293 GloSensor cells, read-out: EC50 (Absolute EC50)
Protocol: HEK293 cells expressing GloSensor™ 40F cGMP (Part No: CS182801, Promega) were used to evaluate the synergy of the test compounds with NO. Multiple assays where run in which the concentrations of test compound also well as the concentration of Diethylenetriamine NONOate (DETA-NONOate) were varied to determine the synergy of the test compound with NO. Test compounds and Diethylenetriamine NONOate (DETA-NONOate or DETA-NO) were diluted to 3 mM (20×) in serum-free CO2 independent medium and serially diluted at 4× dilutions to create 5× dose curve from which 10 ul was added to the wells (x μM concentration for test compound solution and y μM concentration for DETA-NO solution; wherein x is one of the following final concentrations: 30000 nM, 7500 nM, 1875 nM, 468.8 nM, 117.2 nM, 29.29 nM, 7.320 nM, 1.830 nM, 0.460 nM, 0.114 nM, and 0.029 nM and y is one of the following final concentrations: 30 μM, 10 μM, 3.33 μM 1.11 μM, and 0 μM).
Following the analysis as described above, Table 2b summarizes results obtained for Compound I-1 with the various DETA-NO amount in this assay.

EC50 ([DETA-NO] 0 uM): 100 to 1000 nM
EC50 ([DETA-NO] 1.11 uM): 100 to 1000 nM
EC50 ([DETA-NO] 3.33 uM): 100 to 1000 nM
EC50 ([DETA-NO] 10 uM): 100 to 1000 nM
EC50 ([DETA-NO] 30 uM): ≤ 100 nM
synergy with NO to stimulate sGC (varied DETA-NO concentrations): synergizes with NO
SMILES: Fc1ccccc1Cc1nc(-c2nc(C(F)(F)F)n[nH]2)cn2ccnc12 [Compound I-1, 8-(2-fluorobenzyl)-6-(3-(trifluoromethyl)-1H-1,2,4-triazol-5-yl)imidazo[1,2-a]pyrazine]

Reference: patent US11731977B2, “SGC stimulators” (Cyclerion Therapeutics, Inc., priority 2016, dated 2023)
